Assay: xn = mol fraction of the nth substance listed
Conditions: Liquid; for mass density: 298.15 K, 101.3 kPa, Vibrating tube method; for interfacial tension: 303.15 K, maximum differential bubble pressure

CCC(C)(C)OC [2-methoxy-2-methylbutane] + CCCCCC
Conditions | interfacial tension [mN/m] | mass density [kg/m3]
x2 = 0 | 22 | 765.8
x2 = 0.038 | – | 761.49
x2 = 0.051 | 21.6 | –
x2 = 0.092 | – | 755.29
x2 = 0.1 | 21.06 | –
x2 = 0.145 | – | 749.34
x2 = 0.194 | – | 743.82
x2 = 0.209 | 20.64 | –
x2 = 0.247 | – | 737.76
x2 = 0.305 | 20.12 | –
x2 = 0.346 | – | 726.73
x2 = 0.399 | 19.8 | –
x2 = 0.443 | – | 715.93
x2 = 0.497 | – | 709.95
x2 = 0.506 | 19.12 | –
x2 = 0.552 | – | 703.83
x2 = 0.597 | – | 698.92
x2 = 0.611 | 18.71 | –
x2 = 0.644 | – | 693.78
x2 = 0.696 | – | 688.15
x2 = 0.714 | 18.34 | –
x2 = 0.745 | – | 682.72
x2 = 0.795 | – | 677.33
x2 = 0.813 | 18.02 | –
x2 = 0.852 | – | 671.14
x2 = 0.901 | – | 665.86
x2 = 0.914 | 17.66 | –
x2 = 0.952 | – | 660.3
x2 = 0.96 | 17.55 | –

CCCCCC [hexane] + CCC(C)(C)OC
x1 = 1
Conditions | interfacial tension [mN/m] | mass density [kg/m3]
– | 17.4 | 655.19

From the NIST ThermoML archive (doi:10.1016/j.fluid.2011.06.007)
